These results are taken from PMC10739250 (ACS Bio & Med Chem Au, 2023).

Series [1] is described as follows: in vitro. The settings on record: human, microsomes.
The nature of series [2]: physchem.
For series [3] the following is noted: rat hepatocytes, 0.5 ×10^6 cells/mL.
In series [4] the test system is SARS-CoV-2/Canada/VIDO 01/2020. In kind it is cell-based. The settings on record: read-out: EC50 in the presence of the efflux inhibitor CP-100356.
Series [5] in a line: in vitro. The settings on record: human, hepatocytes.
The nature of series [6]: in vitro. The settings on record: hamster, hepatocytes.
The nature of series [7]: physchem. The settings on record: thermodynamic from solid.
For series [8] the following is noted: human, pH 7.4.

≈ marks a conversion by molar mass, not a printed value. A value given as a limit tells only on which side of the number the result lay.

In turn, `CC(C)(C)[C@H](NC(=O)C(F)(F)F)C(=O)N1C[C@H]2[C@@H]([C@H]1C(=O)N[C@H](C#N)C[C@@H]1CCNC1=O)C2(C)C` [Compound 1, nirmatrelvir] gave a half-life in series [1] of 40.2 min. This molecule yielded a logD in series [2] of 1.86. In series [3], the “hepatocyte stability, t1/2, rat” value was 244.7 min. In addition, the concentration giving a half-maximal response (EC50) in series [4] stood at 0.2 µM. In series [5], this molecule yielded a half-life of more than 434 min. In series [6], the half-life worked out at 57.4 min. For the same molecule, the thermodynamic solubility in series [7] was determined as 4.79 mM (≈ 2390 µg/mL). Besides, in series [8], the “amount of metabolite Major” value was 100; the “amount of metabolite Minor A” value stood at 5.1 ± 0.8; the “amount of metabolite Minor B” value is 2.3 ± 0.4; the “increase of minor metabolites A and B on deuteration” value is listed as 210%. Besides, the “minor sites (Minor A and Minor B), share of total metabolites” value in series [8] is recorded as “less than 10%”.

The half-life is how long it takes for the measured level to halve. What is called logD is lipophilicity at a set pH, counting ionised and neutral species. A low value points to a more hydrophilic compound. As usually defined, the EC50 is the midpoint of the concentration-response curve. As usually defined, the solubility (thermodynamic) is the concentration in solution at equilibrium with solid.
